Assay results taken from the NIST ThermoML archive (doi:10.1016/j.fluid.2006.05.032).
± gives the expanded uncertainty stated by the source.

Assay: xn = mol fraction of the nth substance listed
Conditions: Liquid, Vibrating tube method

Cc1ccccc1 [toluene] + CCCO
mass density [kg/m3]
Conditions | x2 = 0 | x2 = 0.125 | x2 = 0.25 | x2 = 0.375 | x2 = 0.5 | x2 = 0.625 | x2 = 0.75 | x2 = 0.875
343.15 K, 15000 kPa | – | – | – | – | 808.1 ± 1 | 801.3 ± 1 | 793.8 ± 1 | 785.1 ± 1
343.15 K, 20000 kPa | 838.1 ± 1 | 831.3 ± 1 | 824.9 ± 1 | 818.7 ± 1 | 812.4 ± 1 | 805.7 ± 1 | 798.1 ± 1 | 789.5 ± 1
343.15 K, 25000 kPa | 842.3 ± 1 | 835.5 ± 1 | 829.1 ± 1 | 822.9 ± 1 | 816.6 ± 1 | 809.8 ± 1 | 802.2 ± 1 | 793.5 ± 1
343.15 K, 30000 kPa | 846.2 ± 1 | 839.5 ± 1 | 833.1 ± 1 | 827 ± 1 | 820.7 ± 1 | 813.9 ± 1 | 806.2 ± 1.1 | 797.4 ± 1.1
343.15 K, 35000 kPa | 850.1 ± 1 | 843.2 ± 1 | 837 ± 1 | 830.7 ± 1.1 | 824.5 ± 1.1 | 817.6 ± 1.1 | 809.9 ± 1.1 | 801.1 ± 1.1
343.15 K, 40000 kPa | 853.7 ± 1 | 847 ± 1.1 | 840.6 ± 1.1 | 834.4 ± 1.1 | 828.2 ± 1.1 | 821.4 ± 1.1 | 813.5 ± 1.1 | 804.6 ± 1.1
343.15 K, 45000 kPa | 857.4 ± 1.1 | 850.4 ± 1.1 | 844.3 ± 1.1 | 838 ± 1.1 | 831.8 ± 1.1 | 824.9 ± 1.1 | 817.2 ± 1.1 | 808.2 ± 1.1
343.15 K, 50000 kPa | 860.8 ± 1.1 | 853.9 ± 1.1 | 847.7 ± 1.1 | 841.4 ± 1.1 | 835.2 ± 1.1 | 828.2 ± 1.1 | 820.5 ± 1.1 | 811.4 ± 1.1
343.15 K, 55000 kPa | 864.2 ± 1.1 | 857.1 ± 1.1 | 851 ± 1.1 | 844.8 ± 1.1 | 838.5 ± 1.1 | 831.5 ± 1.1 | 823.7 ± 1.1 | 814.7 ± 1.1
343.15 K, 60000 kPa | 867.4 ± 1.1 | 860.5 ± 1.1 | 854.3 ± 1.1 | 848 ± 1.1 | 841.8 ± 1.1 | 834.8 ± 1.1 | 826.9 ± 1.1 | 817.7 ± 1.1
343.15 K, 65000 kPa | 870.3 ± 1.1 | 863.6 ± 1.1 | 857.4 ± 1.1 | 851.1 ± 1.1 | 844.9 ± 1.1 | 837.8 ± 1.1 | 829.9 ± 1.1 | 820.7 ± 1.1
353.15 K, 100 kPa | 809.7 ± 1 | 802.7 ± 1 | 795.9 ± 1 | 789.9 ± 1 | 783.8 ± 1 | 777 ± 1 | 769 ± 1 | 760.6 ± 1
353.15 K, 5000 kPa | 815.1 ± 1 | 808 ± 1 | 801.4 ± 1 | 795.3 ± 1 | 789.2 ± 1 | 782.3 ± 1 | 774.4 ± 1 | 766.1 ± 1
353.15 K, 10000 kPa | 820.3 ± 1 | 813.3 ± 1 | 806.7 ± 1 | 800.6 ± 1 | 794.6 ± 1 | 787.7 ± 1 | 779.6 ± 1 | 771.2 ± 1
353.15 K, 15000 kPa | 825.3 ± 1 | 818.2 ± 1 | 811.6 ± 1 | 805.5 ± 1 | 799.5 ± 1 | 792.6 ± 1 | 784.6 ± 1 | 776.2 ± 1
353.15 K, 20000 kPa | 829.9 ± 1 | 822.9 ± 1 | 816.3 ± 1 | 810.2 ± 1 | 804.2 ± 1 | 797.3 ± 1 | 789.1 ± 1 | 780.7 ± 1
353.15 K, 25000 kPa | 834 ± 1 | 827.3 ± 1 | 820.8 ± 1 | 814.7 ± 1 | 808.7 ± 1 | 801.7 ± 1 | 793.5 ± 1 | 784.9 ± 1.1
353.15 K, 30000 kPa | 838.2 ± 1 | 831.6 ± 1 | 825 ± 1 | 818.9 ± 1 | 813 ± 1.1 | 805.9 ± 1.1 | 797.6 ± 1.1 | 789 ± 1.1
353.15 K, 35000 kPa | 842.2 ± 1 | 835.6 ± 1 | 829.1 ± 1.1 | 822.9 ± 1.1 | 817 ± 1.1 | 809.9 ± 1.1 | 801.6 ± 1.1 | 792.9 ± 1.1
353.15 K, 40000 kPa | 846.1 ± 1.1 | 839.4 ± 1.1 | 833 ± 1.1 | 826.8 ± 1.1 | 820.8 ± 1.1 | 813.7 ± 1.1 | 805.4 ± 1.1 | 796.6 ± 1.1
353.15 K, 45000 kPa | 849.8 ± 1.1 | 843.2 ± 1.1 | 836.7 ± 1.1 | 830.6 ± 1.1 | 824.6 ± 1.1 | 817.4 ± 1.1 | 809.1 ± 1.1 | 800.3 ± 1.1
353.15 K, 50000 kPa | 853.3 ± 1.1 | 846.8 ± 1.1 | 840.3 ± 1.1 | 834.2 ± 1.1 | 828.1 ± 1.1 | 820.9 ± 1.1 | 812.5 ± 1.1 | 803.7 ± 1.1
353.15 K, 55000 kPa | 856.7 ± 1.1 | 850.2 ± 1.1 | 843.8 ± 1.1 | 837.6 ± 1.1 | 831.6 ± 1.1 | 824.4 ± 1.1 | 815.8 ± 1.1 | 807 ± 1.1
353.15 K, 60000 kPa | 860.1 ± 1.1 | 853.6 ± 1.1 | 847.2 ± 1.1 | 840.9 ± 1.1 | 835 ± 1.1 | 827.7 ± 1.1 | 818.9 ± 1.1 | 810.3 ± 1.1
353.15 K, 65000 kPa | 863.5 ± 1.1 | 856.8 ± 1.1 | 850.4 ± 1.1 | 844.2 ± 1.1 | 838.3 ± 1.1 | 830.9 ± 1.1 | 822.5 ± 1.1 | 813.6 ± 1.1
